Results published in publication PMC10398856 (ACS Omega, 2023).
pIC50: −log10 of the molar value.

Key:
[1] = tested on: SARS-CoV-2 NIV2020-770 (D614G variant); type: cell-based; conditions: read-out: IC50, antiviral effect on SARS-CoV-2 NIV2020-770 (D614G variant)
[2] = tested on: SARS-CoV-2 Delta (B.617.2 variant); experiment: microbe, parasite or virus in culture; type: cell-based; conditions: Severe acute respiratory syndrome coronavirus 2, read-out: IC50, antiviral effect on SARS-CoV-2 Delta (B.617.2 variant)

## O=c1cc(OCCOc2ccnc(SCc3ccc(Cl)cc3)n2)c2ccccc2o1 [5i, 4-(2-((2-((4-Chlorobenzyl)thio)pyrimidin-4-yl)oxy)ethoxy)-2H-chromen-2-one]
[1]
  pIC50: > 5.00
[2]
  pIC50: > 5.60

## Cc1cccc(CSc2nccc(OCCCOc3cc(=O)oc4ccccc34)n2)c1 [5f, 4-(3-((2-((3-Methylbenzyl)thio)pyrimidin-4-yl)oxy)propoxy)-2H-chromen-2-one]
[1]
  pIC50: > 4.60
[2]
  pIC50: > 5.60

## O=c1cc(OCCOc2ccnc(SCc3ccc(F)cc3)n2)c2ccccc2o1 [5a, 4-(2-((2-((4-Fluorobenzyl)thio)pyrimidin-4-yl)oxy)ethoxy)-2H-chromen-2-one]
[1]
  pIC50: > 4.30
[2]
  pIC50: > 4.60

## O=c1cc(OCCCOc2ccnc(SCc3ccc(F)cc3)n2)c2ccccc2o1 [5b, 4-(3-((2-((4-Fluorobenzyl)thio)pyrimidin-4-yl)oxy)propoxy)-2H-chromen-2-one]
[1]
  pIC50: > 5.00
[2]
  pIC50: > 5.60

## O=c1cc(OCCCOc2ccnc(SCc3ccc(F)cc3)n2)c2cc(F)ccc2o1 [5d, 6-Fluoro-4-(3-((2-((4-fluorobenzyl)thio)pyrimidin-4-yl)oxy)propoxy)-2H-chromen-2-one]
[1]
  pIC50: > 5.00
[2]
  pIC50: > 5.00

## Cc1cccc(CSc2nccc(OCCOc3cc(=O)oc4ccc(F)cc34)n2)c1 [5g, 6-Fluoro-4-(2-((2-((3-methylbenzyl)thio)pyrimidin-4-yl)oxy)ethoxy)-2H-chromen-2-one]
[1]
  pIC50: > 4.60
[2]
  pIC50: > 5.00

## Cc1cccc(CSc2nccc(OCCCOc3cc(=O)oc4ccc(F)cc34)n2)c1 [5h, 6-Fluoro-4-(3-((2-((3-methylbenzyl)thio)pyrimidin-4-yl)oxy)propoxy)-2H-chromen-2-one]
[1]
  pIC50: > 5.60
[2]
  pIC50: > 5.00

## Cc1cccc(CSc2nccc(OCCOc3cc(=O)oc4ccccc34)n2)c1 [5e, 4-(2-((2-((3-Methylbenzyl)thio)pyrimidin-4-yl)oxy)ethoxy)-2H-chromen-2-one]
[1]
  pIC50: > 4.60
[2]
  pIC50: > 5.00

## O=c1cc(OCCOc2ccnc(SCc3ccc(F)cc3)n2)c2cc(F)ccc2o1 [5c, 6-Fluoro-4-(2-((2-((4-fluorobenzyl)thio)pyrimidin-4-yl)oxy)ethoxy)-2H-chromen-2-one]
[1]
  pIC50: > 5.60
[2]
  pIC50: > 5.00
